The source of these data is publication PMC11476017, “A Lincomycin-Specific Antibody Was Developed Using Hapten Prediction, and an Immunoassay Was Established to Detect Lincomycin in Pork and Milk” (Foods, 2024).

The structures appear in SMILES notation.

The test system of this assay is T1, monoclonal antibody 1B11 (LIN/1B11).
T1 construct: whole monoclonal antibody, IgG1
Description: indirect competitive ELISA with LIN-NaIO4-OVA coating antigen. The class given is binding. A general note: An ELISA detects its analyte on a solid surface through an enzyme-linked reagent.

Turning to `CCC[C@@H]1C[C@@H](C(=O)N[C@@H]([C@H]2O[C@H](SC)[C@H](O)[C@@H](O)[C@H]2O)[C@@H](C)O)N(C)C1` [LIN, lincomycin], the IC50 is reported as 0.57 ± 0.03 µg/kg.
